Like-named read-outs stand apart in the source and are kept apart here.
Key:
[1] = biological target: insulin receptor β-subunit associated tyrosine kinase activity (Homo sapiens, UniProt P06213); assay: Protein tyrosine kinase (PTK) assay, 32P incorporation into FYF peptide; assay type: biochemical; details: for effect of compound alone on 32P incorporation into FYF peptide: basal, absence of insulin; for Ki: read-out: estimated inhibition constant, PTK assay
Procedure: Protein tyrosine kinase activity was determined using a modification of the method of N. Konstantopoulos (22).
The reaction was allowed to proceed for 20 minutes at 30° C. before it was terminated by the addition of 12.5 μL of 7.5 M guanidine hydrochloride. An aliquot (10 μL) of the reaction mixture was then spotted onto a Whatman 81 phosphocellulose paper (15 mm×15 mm), washed three times (2 min per wash) in about 50 mL of 30% acetic acid, 0.05% orthophosphoric acid then finally, with one wash in about 200 mL of water. The papers were then rinsed briefly (15 sec) in 95% ethanol, dried, suspended in 2.5 mL of scintillation fluid (Beckman) and counted for radioactivity in a Beckman β-counter.

3T3L1 adipocyte cells = assay: Glucose transport (3H-deoxyglucose uptake) in 3T3L1 adipocyte cells; assay type: cell-based, mouse
Procedure: Glucose transport was determined using a modification of the method of S. J. Isakoff et at. (23). The assay involved measuring the effect of compounds on the uptake of ^3H-deoxyglucose into 3T3L1 adipocyte cells.
The cell line, 3T3-L1, derived from mouse embryo fibroblasts, was grown in 250 mL tissue culture flasks containing 15 mL medium made up of DMEM (Dulbecco's modified Eagle's medium containing glutamine, 2 mM; sodium bicarbonate, 30 mM; penicillin 71.5 mg/litre; streptomycin, 152.5 mg/litre) supplemented with 10% foetal calf serum (FCS), pH 7.4. Cells were maintained in a humidified incubator at 37° C. in a 5% CO2 environment. The medium was changed every 3 days and the cells were split when they were about 70-80% confluent.
3T3-L1 fibroblast cells from one tissue culture flask were suspended in 50 mL of DMEM media containing 10% FCS and 0.5 mL of this suspension were seeded into each well of two 48-well tissue culture plates. The differentiation of the cells was initiated when the fibroblast cells were fully confluent. Routinely, differentiation was induced on cells that had been growing in tissue culture plates for 4-5 days. […] The cells were subsequently maintained with DMEM medium containing 10% FCS.
One day prior to the glucose transport assay, cell medium was replaced with DMEM containing 10% charcoal-treated foetal calf serum (CTFCS). On the day of the assay, the medium was aspirated and each well was washed with 1 mL of 25 mM Hepes, pH 7.4 containing 0.9% NaCl (NaCl-HEPES). […] Ten microlitres of NaCl-HEPES containing 3 mM 2-deoxy-D-glucose and 0.1 μCi 2-deoxy-D-[1-^3H]glucose were then added. Following a 10 min incubation at 37° C., the medium was aspirated off and the wells rapidly washed three times with 1 mL of ice-cold 50 mM phosphate, pH 7.5 containing 150 mM NaCl (PBS) and 10 mM glucose. Two hundred microlitres of 3% Triton X-100 was then added to each well and left to incubate for a minimum of 10 minutes. One hundred microlitres of the solubilised cells was then added to 2.5 mL of liquid scintillation fluid and counted for radioactivity in a Beckman β-counter.

insulin receptor [2] = biological target: T1, insulin receptor (Homo sapiens, UniProt P06213); assay: Assays of insulin action (several biological assays, classification agonist/antagonist)
Target sequence in this assay (P06213 with tags, fused parts or gaps): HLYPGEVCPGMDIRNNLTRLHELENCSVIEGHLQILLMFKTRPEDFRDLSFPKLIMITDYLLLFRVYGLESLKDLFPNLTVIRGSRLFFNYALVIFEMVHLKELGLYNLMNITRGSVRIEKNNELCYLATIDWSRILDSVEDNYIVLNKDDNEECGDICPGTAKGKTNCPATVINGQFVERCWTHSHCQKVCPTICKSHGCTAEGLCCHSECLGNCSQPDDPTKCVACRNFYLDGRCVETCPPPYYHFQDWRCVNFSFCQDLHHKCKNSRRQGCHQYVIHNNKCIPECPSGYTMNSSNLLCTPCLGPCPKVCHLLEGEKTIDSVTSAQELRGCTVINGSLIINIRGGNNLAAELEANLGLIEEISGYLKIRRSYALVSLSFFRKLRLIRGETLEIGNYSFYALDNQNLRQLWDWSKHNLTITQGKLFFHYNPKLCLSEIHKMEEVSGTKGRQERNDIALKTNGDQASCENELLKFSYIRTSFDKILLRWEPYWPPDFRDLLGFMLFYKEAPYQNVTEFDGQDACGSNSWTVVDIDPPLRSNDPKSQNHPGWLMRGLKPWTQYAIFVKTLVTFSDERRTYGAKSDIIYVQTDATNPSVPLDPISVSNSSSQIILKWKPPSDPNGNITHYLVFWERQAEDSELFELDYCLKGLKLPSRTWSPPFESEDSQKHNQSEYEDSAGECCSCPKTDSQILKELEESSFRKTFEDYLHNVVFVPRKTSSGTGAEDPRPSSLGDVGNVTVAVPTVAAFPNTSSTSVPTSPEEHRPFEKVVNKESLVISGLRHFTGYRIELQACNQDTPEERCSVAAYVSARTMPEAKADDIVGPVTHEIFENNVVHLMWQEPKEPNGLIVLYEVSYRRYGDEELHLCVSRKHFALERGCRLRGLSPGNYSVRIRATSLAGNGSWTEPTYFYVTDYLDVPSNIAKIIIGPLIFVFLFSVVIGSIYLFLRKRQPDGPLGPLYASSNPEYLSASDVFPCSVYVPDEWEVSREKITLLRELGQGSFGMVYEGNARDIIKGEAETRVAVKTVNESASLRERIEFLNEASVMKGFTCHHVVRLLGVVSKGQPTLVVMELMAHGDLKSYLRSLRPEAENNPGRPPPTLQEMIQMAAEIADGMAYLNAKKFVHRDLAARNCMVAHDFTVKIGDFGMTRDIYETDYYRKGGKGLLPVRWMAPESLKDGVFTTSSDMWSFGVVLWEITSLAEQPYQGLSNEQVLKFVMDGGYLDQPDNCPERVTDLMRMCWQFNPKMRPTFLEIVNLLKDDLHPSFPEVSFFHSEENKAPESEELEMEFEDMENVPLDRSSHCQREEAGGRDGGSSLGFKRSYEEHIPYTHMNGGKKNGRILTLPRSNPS

insulin receptor [3] = biological target: T1, insulin receptor; assay: 125I insulin binding to CHO.T11 cells; design: expressed in transfected cells
Procedure: (§1) Tubes were mixed and incubated for 16 h at 4° C. After the incubation, the tubes were placed on ice and 300 μL of a 1:5 suspension of 0.4% bovine-γ-globulin in 20% polyethyleneglycol 6000 (BDH chemicals) was added to each tube, mixed thoroughly and left to incubate for 30 min on ice. The tubes were then centrifuged (3,000 g) for 30 min at 4° C., the supernatant was aspirated off and the pellet counted for radioactivity. […] Inhibition constants were estimated by graphical analysis of displacement plots or calculated using the curve fitting programs EBDA and/or LIGAND.
Target sequence in this assay (P06213 28-758 limits assumed): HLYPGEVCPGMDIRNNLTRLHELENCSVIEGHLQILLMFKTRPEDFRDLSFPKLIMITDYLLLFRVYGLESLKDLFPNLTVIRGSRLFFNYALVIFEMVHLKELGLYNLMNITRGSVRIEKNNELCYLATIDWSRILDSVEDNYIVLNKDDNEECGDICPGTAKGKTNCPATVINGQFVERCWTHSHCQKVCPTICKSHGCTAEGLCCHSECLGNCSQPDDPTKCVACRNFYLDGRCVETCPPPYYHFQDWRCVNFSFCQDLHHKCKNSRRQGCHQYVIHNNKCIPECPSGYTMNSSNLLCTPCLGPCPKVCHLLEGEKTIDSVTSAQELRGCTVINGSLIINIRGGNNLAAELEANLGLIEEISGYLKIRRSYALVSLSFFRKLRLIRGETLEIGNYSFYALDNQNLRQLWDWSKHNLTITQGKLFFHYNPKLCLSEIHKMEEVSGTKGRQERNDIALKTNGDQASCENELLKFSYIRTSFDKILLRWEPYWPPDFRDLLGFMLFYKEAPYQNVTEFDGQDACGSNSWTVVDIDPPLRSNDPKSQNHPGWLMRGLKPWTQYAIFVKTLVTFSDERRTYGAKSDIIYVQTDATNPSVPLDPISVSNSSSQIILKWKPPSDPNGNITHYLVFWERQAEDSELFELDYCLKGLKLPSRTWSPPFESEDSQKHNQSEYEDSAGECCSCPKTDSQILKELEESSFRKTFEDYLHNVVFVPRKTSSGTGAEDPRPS

insulin receptor [4] = biological target: T1, insulin receptor; assay: 125I insulin binding to wheat germ agglutinin purified insulin receptors (WGA.IR); design: host or cells: several: placental membranes, CHO.T11 cells, WGA purified receptors; details: LIGAND 1-site fit
Procedure: as §1
Target sequence in this assay (P06213 28-758 limits assumed): as above

insulin receptor [5] = biological target: T1, insulin receptor; assay: 125I insulin binding, insulin receptors from a number of sources; design: host or cells: several: placental membranes, CHO.T11 cells, WGA purified receptors; details: range over receptor sources
Procedure: as §1
Target sequence in this assay (P06213 28-758 limits assumed): as above

IGF-1 receptor = IGF-1 receptor (Homo sapiens, UniProt P08069); assay: 125I IGF-1 binding to human placental plasma membranes (HPPM); design: from tissue; host or cells: human placenta, plasma membranes; details: HPPM; read-out: Ki, competition for 125I IGF-1 binding
insulin receptor [6] = biological target: T1, insulin receptor; assay: 125I insulin binding to human placental plasma membranes (HPPM); design: Human Placental Plasma Membranes—50 mM Hepes, pH 7.8 @ 4 C containing 100 U/mL Bacitracin; from tissue; host or cells: human placenta, plasma membranes
Procedure: as §1
Target sequence in this assay (P06213 28-758 limits assumed): as above

[7] = read-out: estimated IC50, 32P incorporation into FYF peptide
[8] = Mus musculus, 3T3-L1; read-out: estimated IC50, glucose transport
[9] = human placental plasma membranes, 16 h at 4° C.
[10] = 3T3L1 cells, 2 nM insulin; read-out: estimated inhibition constant (Ki), glucose transport assay

Chain of insulin receptor β-subunit associated tyrosine kinase activity (P06213 28-758 limits assumed): as above
Chain of IGF-1 receptor (P08069 31-736 limits assumed): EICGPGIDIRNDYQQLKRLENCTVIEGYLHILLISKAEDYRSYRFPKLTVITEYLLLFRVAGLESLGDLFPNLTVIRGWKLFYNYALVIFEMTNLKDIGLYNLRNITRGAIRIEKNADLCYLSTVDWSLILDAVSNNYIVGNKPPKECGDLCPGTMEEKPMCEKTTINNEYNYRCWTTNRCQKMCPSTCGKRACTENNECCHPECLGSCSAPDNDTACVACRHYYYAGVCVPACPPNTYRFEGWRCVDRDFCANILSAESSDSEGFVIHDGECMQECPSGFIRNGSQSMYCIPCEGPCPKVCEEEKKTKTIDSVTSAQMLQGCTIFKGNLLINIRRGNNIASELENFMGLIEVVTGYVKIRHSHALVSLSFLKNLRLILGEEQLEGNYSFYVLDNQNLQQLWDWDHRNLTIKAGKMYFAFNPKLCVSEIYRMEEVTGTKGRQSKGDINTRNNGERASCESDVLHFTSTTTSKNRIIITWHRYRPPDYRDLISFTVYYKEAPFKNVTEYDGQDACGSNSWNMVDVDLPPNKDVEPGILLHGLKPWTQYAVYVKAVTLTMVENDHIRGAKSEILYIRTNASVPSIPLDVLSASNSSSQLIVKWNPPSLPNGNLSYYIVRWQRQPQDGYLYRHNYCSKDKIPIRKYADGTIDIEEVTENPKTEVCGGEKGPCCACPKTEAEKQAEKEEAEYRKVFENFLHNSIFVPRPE

## O=C(O)c1cc2ccccc2c(Cc2c(O)c(C(=O)O)cc3ccccc23)c1O [IM 025, 4,4′-Methylenebis[3-hydroxy-2-naphthalenecarboxylic acid]]
[1]; [7]
  IC50: 150 µM
3T3L1 adipocyte cells; [8]
  IC50: 170 µM
Insulin receptor [2]
  classification of insulin action: antagonists of insulin action
Insulin receptor [3]
  Ki: 137 to 337 µM
Insulin receptor [4]
  Ki: 108 ± 32 µM
Insulin receptor [5]
  Ki: 100 to 400 µM

## CCCc1c(OCCCOc2cc(O)c(C(C)=O)cc2CC)ccc2c1OC(C(=O)O)CC2 (stereo not shown) [IM 071, 7-[3-(4-acetyl-2-ethyl-5-hydroxyphenoxy)propoxy]-3,4-dihydro-8-propyl-2H-1-benzopyran-2-carboxylic acid]
Insulin receptor [2]
  classification of insulin action: antagonists of insulin action

## O=S(=O)(NS(=O)(=O)C(F)(F)F)c1cc(Cl)cc(Cl)c1OS(=O)(=O)c1cc(Cl)cc(Cl)c1O [IM 103, 2,4-dichloro-6-(N-(trifluoromethanesulfonyl))sulfamoylphenyl 3,5-dichloro-2-hydroxybenzenesulfonate]
3T3L1 adipocyte cells; Mus musculus, 3T3-L1; compound alone; read-out: apparent EC50, stimulation of glucose transport
  EC50: 45 ± 7 µM
3T3L1 adipocyte cells; compound alone, relative to maximal dose of insulin (100 nM)
  efficacy compared with insulin, glucose transport: about 15%
3T3L1 adipocyte cells; glucose transport
  concentration at apex of bi-phasic dose response curve: 110 µM
3T3L1 adipocyte cells; in presence of insulin (2 nM)
  effect on insulin stimulated glucose transport: abolishes the insulin stimulation of glucose transport in a dose dependent manner
Insulin receptor [2]
  classification of insulin action: agonists of insulin action
Insulin receptor [3]
  Ki: 132 ± 29 µM
IGF-1 receptor
  Ki: 59 µM
Insulin receptor [4]
  Ki: 83 µM
Insulin receptor [6]; [9]
  Ki: 137 ± 45 µM

## CCCc1c(COc2ccc3c(=O)cc(C(=O)O)oc3c2CCC)ccc(C(C)=O)c1O [IM 127, 7-[(4-acetyl-3-hydroxy-2-propylphenyl)methoxy]-4-oxo-8-propyl-4H-1-benzopyran-2-carboxylic acid]
3T3L1 adipocyte cells; [10]
  Ki: 60 µM
Insulin receptor [2]
  classification of insulin action: antagonists of insulin action
Insulin receptor [4]
  Ki: 295 µM
Insulin receptor [6]; [9]
  Ki: 140 to 320 µM

## CCCc1c(OCCCOc2cc(O)c(-c3cc[nH]n3)cc2CC)ccc2c1OC(C(=O)O)CC2 (stereo not shown) [IM 132, 3,4-dihydro-8-propyl-7-[[3-[2-ethyl-5-hydroxy-4-(1H-pyrazol-3-yl)phenoxy]propyl]oxy]-2H-1-benzopyran-2-carboxylic acid]
[1]
  effect of compound alone on 32P incorporation into FYF peptide: does not increase ^32P incorporation into FYF peptide
  Ki: 360 µM
3T3L1 adipocyte cells; [10]
  Ki: 64 µM
3T3L1 adipocyte cells; basal, no insulin
  effect of compound alone on glucose transport: does not increase ^32P incorporation into FYF peptide or activate glucose transport
3T3L1 adipocyte cells; in presence of insulin (2 nM)
  effect on insulin stimulated glucose transport: significant synergism with insulin
Insulin receptor [2]
  classification of insulin action: antagonists of insulin action
Insulin receptor [5]
  Ki: 200 to 450 µM

## CCCc1c(OCCCOc2cc(O)c(OCC)cc2CC)ccc2c1OC(C(=O)O)CC2 (stereo not shown) [IM 134, 3,4-dihydro-8-propyl-7-[[3-[2-ethyl-5-hydroxy-4-ethoxyphenoxy]propyl]oxy]-2H-1-benzopyran-2-carboxylic acid]
[1]
  effect of compound alone on 32P incorporation into FYF peptide: does not increase ^32P incorporation into FYF peptide
  Ki: 300 to 400 µM
3T3L1 adipocyte cells; [10]
  Ki: 60 to 110 µM
3T3L1 adipocyte cells; basal, no insulin
  effect of compound alone on glucose transport: does not increase ^32P incorporation into FYF peptide or glucose transport
Insulin receptor [2]
  classification of insulin action: antagonists of insulin action
Insulin receptor [6]; [9]
  Ki: 900 µM

## CCCc1c(OCc2ccc3ccccc3n2)ccc2c1OC(C(=O)O)CC2 (stereo not shown) [IM 143, 8-propyl-7-(quinol-2′-ylmethoxy)-3,4-dihydro-2H-1-benzopyran-2-carboxylic acid]
3T3L1 adipocyte cells; [10]
  Ki: 40 µM
3T3L1 adipocyte cells; basal, no insulin
  effect of compound alone on glucose transport: does not stimulate glucose transport activity
Insulin receptor [2]
  classification of insulin action: antagonists of insulin action
Insulin receptor [6]; human placental plasma membranes
  Ki: ~2000 µM

## CCCc1c(OCc2ccc3ccccc3c2)ccc2c1OC(C(=O)O)CC2 (stereo not shown) [IM 144, 7-(naphth-2′-ylmethoxy)-8-propyl-3,4-dihydro-2H-1-benzopyran-2-carboxylic acid]
[1]
  effect of compound alone on 32P incorporation into FYF peptide: does not increase ^32P incorporation into FYF peptide
  Ki: 130 µM
3T3L1 adipocyte cells; [10]
  Ki: 125 µM
3T3L1 adipocyte cells; basal, no insulin
  effect of compound alone on glucose transport: does not increase ^32P incorporation into FYF peptide or activate glucose transport
Insulin receptor [2]
  classification of insulin action: antagonists of insulin action
Insulin receptor [6]; [9]
  Ki: 900 µM

## CCCN(CCC)c1c([N+](=O)[O-])cc(S(=O)(=O)NS(=O)(=O)C(F)(F)F)cc1[N+](=O)[O-] [IM 145, N-(trifluoromethanesulfonyl)-3,5-dinitro-4-(N′,N′-dipropylamino)benzenesulfonamide]
[1]
  IC50: 90 µM
  effect of compound alone on 32P incorporation into FYF peptide: does not stimulate PTK
3T3L1 adipocyte cells; Mus musculus, 3T3-L1, read-out: estimated IC50, glucose transport
  IC50: 60 µM
3T3L1 adipocyte cells; basal, no insulin
  effect of compound alone on glucose transport: does not stimulate PTK or glucose transport activity
Insulin receptor [2]
  classification of insulin action: antagonists of insulin action
Insulin receptor [6]
  Ki: ~1000 µM

## CCCc1c(OCCCOc2cc(O)c(-c3ccc(F)cc3)cc2CC)ccc2c1OC(C(=O)O)CC2 (stereo not shown) [IM 171, 8-propyl-7-[3-[4-(4-fluorophenyl)-2-ethyl-5-hydroxyphenoxy]propoxy]-3,4-dihydro-2H-1-benzopyran-2-carboxylic acid]
[1]
  effect of compound alone on 32P incorporation into FYF peptide: does not increase ^32P incorporation into FYF peptide
[1]; [7]
  IC50: 250 µM
3T3L1 adipocyte cells; [8]
  IC50: 80 µM
3T3L1 adipocyte cells; basal, no insulin
  effect of compound alone on glucose transport: does not increase ^32P incorporation into FYF peptide or activate glucose transport
Insulin receptor [2]
  classification of insulin action: antagonists of insulin action
Insulin receptor [6]; [9]
  Ki: 370 µM
